# Several values for one entry are separate records, joined by “and”; a condition that tells them apart may be missing. Equal values may be shown once. Read-outs that look alike come from different tables or passages of the source.
# Key:
# [1] = molecular target: T1, coca-GlyR (α7(L141G,G175K,Y217F)–GlyR) (Homo sapiens, UniProt P23415+P36544, G175K/L141G/Y217F); test: Membrane potential assay, coca-GlyR in HEK293; type: cell-based; details: coca-GlyR; for Max normalized AVG: AVG of DRs
# T1 construct: expressed in transfected cells; host or cells: HEK293 (ATCC CRL-1573), pcDNA3.1
# [2] = molecular target: T2, unmodified α7–5HT3 (UniProt P23979+P36544, M226I/T225I); test: Membrane potential assay, unmodified α7–5HT3; type: cell-based, human α7 nAChR LBD, mouse 5HT3 IPD; details: a7-5Ht3; for Max normalized AVG: AVG of DR 1-3; for Max normalized, single replicate: relative to ACh max of the DR
# T2 construct: expressed in transfected cells; host or cells: HEK293 (ATCC CRL-1573), pcDNA3.1
# [3] = molecular target: T3, unmodified α7–GlyR (Homo sapiens, UniProt P23415+P36544); test: Membrane potential assay, unmodified α7–GlyR; type: cell-based; details: a7-GlyR; for Max normalized AVG: AVG of DR 1-3
# T3 construct: expressed in transfected cells; host or cells: HEK293 (ATCC CRL-1573), pcDNA3.1
# [4] = tested on: α7–5HT3 mutant chimeric channels; test: cell-based; type: cell-based, human α7 nAChR LBD, mouse 5HT3 IPD; details: for EC50: sheet 1e
# [5] = tested on: coca-5HT3; test: Whole-cell voltage-clamp in HEK293 cells, coca-5HT3; type: cell-based, human α7 nAChR LBD, mouse 5HT3 IPD
# Description: Channel mutants and agonists were further characterized in whole-cell voltage-clamp experiments performed on HEK293 cells. At passage 44–48, cells were plated at low density (1 × 10^3 per cm^2) on poly-D-lysine-coated glass coverslips, then transfected in 10 cm^2 wells using the Fugene 6 transfection reagent (Roche) with DNA plasmids containing both an ion channel cDNA (pcDNA3.1, 2 µg per well) and cDNA for GFP (pCMV, 0.1 μg per well), followed by replacement of the medium after 3 h. Recordings were made 24–72 h after transfection.
# Electrophysiological recordings were performed in whole-cell voltage-clamp mode, on an inverted fluorescence microscope (Olympus IX-51) using pClamp software and a […] amplifier (Molecular Devices). Electrophysiological data was filtered at 4 kHz, digitized at 10 kHz using a Digidata 1400 interface (Molecular Devices), recorded on a PC (Dell) and analysed using custom MATLAB software (MathWorks). Solutions were delivered from a gravity fed perfusion system through a capillary tube placed approximately […] from the recorded cell using an eight-way manifold pinch valve system (Nanion), which was controlled from the acquisition software. This allowed for up to seven concentrations of agonist to be tested. […]
# [6] = screen of chimeric α7–5HT3 and α7–GlyR single LBD mutants (Fig. 1d)
# T3 sequence (P36544+P23415 fused): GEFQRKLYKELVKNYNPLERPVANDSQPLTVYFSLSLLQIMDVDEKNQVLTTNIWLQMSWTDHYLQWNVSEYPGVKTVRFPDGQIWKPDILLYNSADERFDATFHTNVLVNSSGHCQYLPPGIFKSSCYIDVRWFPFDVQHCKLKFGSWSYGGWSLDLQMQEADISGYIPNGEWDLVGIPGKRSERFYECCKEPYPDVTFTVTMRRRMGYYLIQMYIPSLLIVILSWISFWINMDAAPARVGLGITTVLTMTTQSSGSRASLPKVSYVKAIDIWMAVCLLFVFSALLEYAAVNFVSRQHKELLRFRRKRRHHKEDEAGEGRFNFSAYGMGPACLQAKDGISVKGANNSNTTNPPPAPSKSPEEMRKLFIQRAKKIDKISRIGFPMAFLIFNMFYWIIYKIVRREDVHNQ
# T2 sequence (P36544+P23979 fused P36544:T225I/P36544:M226I): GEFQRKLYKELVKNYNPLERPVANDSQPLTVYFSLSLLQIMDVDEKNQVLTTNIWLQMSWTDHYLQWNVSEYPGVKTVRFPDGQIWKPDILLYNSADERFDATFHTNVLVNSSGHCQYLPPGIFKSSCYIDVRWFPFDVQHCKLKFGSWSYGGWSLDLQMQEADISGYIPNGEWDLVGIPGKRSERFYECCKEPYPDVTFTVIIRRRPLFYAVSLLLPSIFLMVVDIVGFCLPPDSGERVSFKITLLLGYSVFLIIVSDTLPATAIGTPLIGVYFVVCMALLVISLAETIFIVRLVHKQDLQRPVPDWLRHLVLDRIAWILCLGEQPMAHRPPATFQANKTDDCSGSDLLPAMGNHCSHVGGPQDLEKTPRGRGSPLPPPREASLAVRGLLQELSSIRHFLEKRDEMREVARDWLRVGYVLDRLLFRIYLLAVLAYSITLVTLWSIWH
# T1 sequence (P36544+P23415 fused P36544:L141G/P36544:G175K/P36544:Y217F): as the sequence (P36544+P23415 fused) above, with L119G, G153K, Y195F counted along it
structure (smiles),measurement,setting,value
"CC(=O)OCC[N+](C)(C)C [ACh, acetylcholine]","DR response, single replicate",[1]; [ACh] 1.37174,0.018 and 0.006 and 0.023 and 0.1 and 0.117 and 0.055 and 0.048 and 0.049
same,"Max normalized, single replicate",[1]; [ACh] 1.37174,0.004983 and 0.06336 and 0.1695 and 0.06161 and 0.07891 and 0.05993 and 0.05731 and 0.01172
same,Max normalized AVG,[1]; [ACh] 1.37174,0.06341
same,"DR response, single replicate",[1]; [ACh] 4.11523,0.031 (2×) and 0.023 and 0.017 and 0.194 and 0.139 and 0.02 and 0.098
same,"Max normalized, single replicate",[1]; [ACh] 4.11523,0.0191 and 0.04683 and 0.3288 and 0.0732 and 0.02869 and 0.0387 and 0.1146 and 0.02018
same,Max normalized AVG,[1]; [ACh] 4.11523,0.08377
same,"DR response, single replicate",[1]; [ACh] 12.3457,0.127 and 0.17 and 0.031 and 0.325 and 0.191 and 0.086 and 0.042 and 0.079
same,Max normalized AVG,[1]; [ACh] 12.3457,0.1536
same,"DR response, single replicate",[1]; [ACh] 37.037,0.513 and 0.713 and 0.076 and 0.453 and 1.051 and 0.206 and 0.22 and 0.227
same,"Max normalized, single replicate",[1]; [ACh] 37.037,0.5922 and 0.2094 and 0.7678 and 0.5534 and 0.2956 and 0.2747 and 0.2655 and 0.334
same,Max normalized AVG,[1]; [ACh] 37.037,0.4116
same,"DR response, single replicate",[1]; [ACh] 111.111,1.218 and 1.065 and 0.222 and 0.557 and 1.552 and 0.373 and 0.414 and 0.475
same,Max normalized AVG,[1]; [ACh] 111.111,0.7072
same,"Max normalized, single replicate",[1]; [ACh] 333.333,0.9626 and 0.9449 and 1 (5×) and 0.9414
same,Max normalized AVG,[1]; [ACh] 333.333,0.9811
same,"DR response, single replicate",[1]; [ACh] 1000,1.536 and 1.204 and 0.363 and 0.524 and 0.67 and 0.657 and 0.77
same,"Max normalized, single replicate",[1]; [ACh] 1000,1 (3×) and 0.8881 and 0.9613 and 0.8202 and 0.9006
same,Max normalized AVG,[1]; [ACh] 1000,0.9386
same,"DR response, single replicate",[1]; [ACh] 3000,1.183 and 0.791 and 0.464
same,"Max normalized, single replicate",[1]; [ACh] 3000,0.657 and 0.7864 and 0.7702
same,Max normalized AVG,[1]; [ACh] 3000,0.7379
same,"DR response, single replicate",[2]; concentration 0.0457247,0.056 and 0.121 and 0.112
same,Max normalized AVG,[2]; concentration 0.0457247,0.09523
same,"Max normalized, single replicate",[2]; concentration 0.0457247,0.1142 and 0.1039 and 0.06763
same,"DR response, single replicate",[2]; concentration 0.137174,0.034 and 0.057 and 0.037
same,Max normalized AVG,[2]; concentration 0.137174,0.04305
same,"Max normalized, single replicate",[2]; concentration 0.137174,0.05377 and 0.03432 and 0.04106
same,"DR response, single replicate",[2]; concentration 0.411523,0.071 and 0.056 and 0.06
same,Max normalized AVG,[2]; concentration 0.411523,0.06475
same,"Max normalized, single replicate",[2]; concentration 0.411523,0.05283 and 0.05566 and 0.08575
same,"DR response, single replicate",[2]; concentration 1.23457,0.065 and 0.06 and 0.083
same,Max normalized AVG,[2]; concentration 1.23457,0.0707
same,"Max normalized, single replicate",[2]; concentration 1.23457,0.0566 and 0.07699 and 0.0785
same,"DR response, single replicate",[2]; concentration 3.7037,0.161 and 0.213 and 0.204
same,Max normalized AVG,[2]; concentration 3.7037,0.1949
same,"Max normalized, single replicate",[2]; concentration 3.7037,0.2009 and 0.1892 and 0.1944
same,"DR response, single replicate",[2]; concentration 11.1111,0.486 and 0.61 and 0.657
same,Max normalized AVG,[2]; concentration 11.1111,0.5906
same,"Max normalized, single replicate",[2]; concentration 11.1111,0.5755 and 0.6095 and 0.587
same,"DR response, single replicate",[2]; concentration 33.3333,0.828 and 1.06 and 1.078
same,Max normalized AVG,[2]; concentration 33.3333,1
same,"Max normalized, single replicate",[2]; concentration 33.3333,1
same,"DR response, single replicate",[2]; concentration 100,0.762 and 0.959 and 0.926
same,Max normalized AVG,[2]; concentration 100,0.8947
same,"Max normalized, single replicate",[2]; concentration 100,0.9047 and 0.859 and 0.9203
same,max (DR response of the replicate),[2]; largest response of each DR,0.828 and 1.06 and 1.078
same,"Max normalized, single replicate",[3]; [ACh] 0.0457247,0.2482 and 0.1071 and 0.173
same,Max normalized AVG,[3]; [ACh] 0.0457247,0.1761
same,Max normalized AVG,[3]; [ACh] 0.137174,0.1486
same,"Max normalized, single replicate",[3]; [ACh] 0.411523,0.2506 and 0.0705 and 0.1596
same,Max normalized AVG,[3]; [ACh] 0.411523,0.1602
same,"Max normalized, single replicate",[3]; [ACh] 1.23457,0.2787 and 0.09661 and 0.1213
same,Max normalized AVG,[3]; [ACh] 1.23457,0.1655
same,"Max normalized, single replicate",[3]; [ACh] 3.7037,0.4426 and 0.3029 and 0.2921
same,Max normalized AVG,[3]; [ACh] 3.7037,0.3459
same,"Max normalized, single replicate",[3]; [ACh] 11.1111,0.8337 and 0.671 and 0.6315
same,Max normalized AVG,[3]; [ACh] 11.1111,0.7121
same,"Max normalized, single replicate",[3]; [ACh] 33.3333,0.9719 and 0.9347 and 0.9843
same,Max normalized AVG,[3]; [ACh] 33.3333,0.9636
same,"Max normalized, single replicate",[3]; [ACh] 100,1
same,Max normalized AVG,[3]; [ACh] 100,1
same,"DR response, single replicate",[3]; concentration 0.0457247,0.077 and 0.106 and 0.041
same,"DR response, single replicate",[3]; concentration 0.137174,0.046 and 0.076 and 0.063
same,"DR response, single replicate",[3]; concentration 0.411523,0.071 and 0.107 and 0.027
same,"DR response, single replicate",[3]; concentration 1.23457,0.054 and 0.119 and 0.037
same,"DR response, single replicate",[3]; concentration 3.7037,0.13 and 0.189 and 0.116
same,"DR response, single replicate",[3]; concentration 11.1111,0.281 and 0.356 and 0.257
same,"DR response, single replicate",[3]; concentration 33.3333,0.438 and 0.415 and 0.358
same,"DR response, single replicate",[3]; concentration 100,0.445 and 0.427 and 0.383
same,max (DR response of the replicate),[3]; largest response of each DR,0.445 and 0.427 and 0.383
same,currents from coca-5HT3,[5],shifted above physiological concentrations

# From article PMC12527922, “Cocaine chemogenetics blunts drug-seeking by synthetic physiology” (Nature, 2025)
